Source: ChEMBL document CHEMBL4402590, “Small-Molecule Antagonist Targeting Exportin-1 via Rational Structure-Based Discovery” (J Med Chem, 2020)
Activity calls are given as the source filed them. The rule behind the calls is not given here.

Key:
Exportin-1 [1] = target: T1, Exportin-1 (Homo sapiens, UniProt O14980); assay: Reversible inhibition of CRM1 in human 293T cells assessed as increase in translocation of NES-GFP to […] at 4 uM incubated for 2 hrs by confocal laser scanning microscopy; type: cell-based
T1 sequence (O14980 whole entry): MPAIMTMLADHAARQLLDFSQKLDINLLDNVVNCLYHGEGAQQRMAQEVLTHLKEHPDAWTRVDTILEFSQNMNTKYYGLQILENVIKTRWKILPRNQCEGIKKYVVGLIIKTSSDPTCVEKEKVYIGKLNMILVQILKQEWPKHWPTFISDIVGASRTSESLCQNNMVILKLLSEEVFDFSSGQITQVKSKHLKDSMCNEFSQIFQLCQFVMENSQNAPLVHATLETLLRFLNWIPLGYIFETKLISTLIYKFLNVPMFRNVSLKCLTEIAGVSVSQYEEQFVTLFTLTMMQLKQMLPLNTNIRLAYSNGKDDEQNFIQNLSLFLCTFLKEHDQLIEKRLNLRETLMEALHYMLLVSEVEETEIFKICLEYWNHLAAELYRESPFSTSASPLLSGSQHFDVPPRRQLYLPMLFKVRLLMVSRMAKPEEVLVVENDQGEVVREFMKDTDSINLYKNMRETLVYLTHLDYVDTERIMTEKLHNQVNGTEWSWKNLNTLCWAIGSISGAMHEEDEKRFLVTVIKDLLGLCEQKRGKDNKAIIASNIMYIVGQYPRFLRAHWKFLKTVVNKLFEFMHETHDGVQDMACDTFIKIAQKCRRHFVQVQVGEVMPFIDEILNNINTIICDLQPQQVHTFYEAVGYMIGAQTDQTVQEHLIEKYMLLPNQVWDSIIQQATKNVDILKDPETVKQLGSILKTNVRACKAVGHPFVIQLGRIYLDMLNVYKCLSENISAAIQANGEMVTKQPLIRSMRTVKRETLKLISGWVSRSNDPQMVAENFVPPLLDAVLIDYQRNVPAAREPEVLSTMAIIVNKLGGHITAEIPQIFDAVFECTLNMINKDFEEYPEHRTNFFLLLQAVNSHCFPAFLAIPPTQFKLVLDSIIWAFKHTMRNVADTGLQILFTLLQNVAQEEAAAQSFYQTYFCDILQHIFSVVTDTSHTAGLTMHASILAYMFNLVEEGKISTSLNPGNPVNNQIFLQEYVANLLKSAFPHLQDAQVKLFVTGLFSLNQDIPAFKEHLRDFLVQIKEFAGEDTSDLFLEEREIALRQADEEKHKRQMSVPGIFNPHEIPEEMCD

Exportin-1 [2] = target: T1, Exportin-1; assay: Binding affinity to recombinant His-tagged CRM1 (unknown origin) by SPR analysis
[3] = Cytotoxicity activity against human SNK6 cells assessed as GSH:GSSG ratio at 1 uM incubated for 48 hrs by GSH and GSSG assay kit method; type: cell-based
HCT-15 = assay: Antiproliferative activity against CRM1 siRNA […] human HCT15 cells assessed as reduction in cell viability incubated for 24 hrs; type: functional, cell-based; settings: HCT-15, 24 h
Homo sapiens = species: Homo sapiens; assay: Binding affinity to recombinant His-tagged IkBalpha (unknown origin) by SPR analysis
[4] = target: Kelch-like ECH-associated protein 1 (Homo sapiens) (UniProt Q14145); assay: Binding affinity to recombinant His-tagged Keap1 (unknown origin) by SPR analysis
Kelch-like ECH-associated protein 1 (Homo sapiens), sequence (Q14145 whole entry): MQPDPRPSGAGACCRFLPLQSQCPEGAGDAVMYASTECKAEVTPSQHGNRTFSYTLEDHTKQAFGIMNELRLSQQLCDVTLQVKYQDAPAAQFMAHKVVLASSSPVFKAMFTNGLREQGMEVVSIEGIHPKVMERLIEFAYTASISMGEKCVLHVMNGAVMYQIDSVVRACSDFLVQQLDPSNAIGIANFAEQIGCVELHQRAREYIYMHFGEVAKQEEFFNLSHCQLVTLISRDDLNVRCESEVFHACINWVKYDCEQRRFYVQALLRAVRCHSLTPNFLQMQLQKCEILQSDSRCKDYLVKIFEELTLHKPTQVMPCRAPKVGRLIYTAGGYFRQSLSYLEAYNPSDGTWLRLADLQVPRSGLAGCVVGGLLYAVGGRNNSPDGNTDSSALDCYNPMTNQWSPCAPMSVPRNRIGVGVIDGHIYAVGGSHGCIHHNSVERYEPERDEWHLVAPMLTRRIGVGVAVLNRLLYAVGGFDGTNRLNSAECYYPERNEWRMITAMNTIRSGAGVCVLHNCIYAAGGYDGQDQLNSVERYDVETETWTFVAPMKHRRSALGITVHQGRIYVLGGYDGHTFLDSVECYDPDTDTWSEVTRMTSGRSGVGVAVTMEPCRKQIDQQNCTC

Mus musculus [5] = assay: Anti-inflammatory activity against DSS-induced ulcerative colitis C57BL/6J mouse model assessed as reduction in body weight loss at 3 and 30 mg/kg, po administered for 7 days and measured daily; type: functional, organism-based
Mus musculus [6] = assay: Anti-inflammatory activity against DSS-induced ulcerative colitis C57BL/6J mouse model assessed as reduction in colon shortening at 3 and 30 mg/kg, po administered for 7 days and measured daily; type: functional, organism-based
Mus musculus [7] = assay: Anti-inflammatory activity against DSS-induced ulcerative colitis C57BL/6J mouse model assessed as reduction in diarrhea at 3 and 30 mg/kg, po administered for 7 days and measured daily; type: functional, organism-based
Mus musculus [8] = assay: Anti-inflammatory activity against DSS-induced ulcerative colitis C57BL/6J mouse model assessed as preservation of colon mucosal architecture at 3 and 30 mg/kg, po administered for 7 days and measured on day 7 by […] and eosin staining based microscopic analysis; type: functional, organism-based
Mus musculus [9] = assay: Anti-inflammatory activity against DSS-induced ulcerative colitis C57BL/6J mouse model assessed as reduction in colon swelling at 3 and 30 mg/kg, po administered for 7 days and measured on day 7 by […] and eosin staining based microscopic analysis; type: functional, organism-based
Mus musculus [10] = assay: Anti-inflammatory activity against DSS-induced ulcerative colitis C57BL/6J mouse model assessed as reduction in colon inflammation at 3 and 30 mg/kg, po administered for 7 days and measured on day 7 by […] and eosin staining based microscopic analysis; type: functional, organism-based
Mus musculus [11] = assay: Anti-inflammatory activity against DSS-induced ulcerative colitis C57BL/6J mouse model assessed as reduction in colon ulceration at 3 and 30 mg/kg, po administered for 7 days and measured on day 7 by […] and eosin staining based microscopic analysis; type: functional, organism-based
Mus musculus [12] = assay: Anti-inflammatory activity against DSS-induced ulcerative colitis C57BL/6J mouse model assessed as reduction in colitis orally administered for 7 days and measured on day 7 by […] and eosin staining based microscopic analysis; type: functional, organism-based
Mus musculus [13] = assay: Anti-inflammatory activity against DSS-induced ulcerative colitis C57BL/6J mouse model assessed as re-epithelialization of colon at 3 and 30 mg/kg, po administered for 7 days and measured on day 7 by […] and eosin staining based microscopic analysis; type: functional, organism-based
Mus musculus [14] = assay: Anti-inflammatory activity against DSS-induced ulcerative colitis C57BL/6J mouse model assessed as reduction in body weight loss at 10 mg/kg, po administered for 7 days and measured daily; type: functional, organism-based
Mus musculus [15] = assay: Anti-inflammatory activity against DSS-induced ulcerative colitis C57BL/6J mouse model assessed as reduction in diarrhea at 10 mg/kg, po administered for 7 days and measured daily; type: functional, organism-based
Mus musculus [16] = assay: Anti-inflammatory activity against DSS-induced ulcerative colitis C57BL/6J mouse model assessed as restoration of colon length at 10 mg/kg, po administered for 7 days and measured on day 7; type: functional, organism-based
Mus musculus [17] = assay: Anti-inflammatory activity against DSS-induced ulcerative colitis C57BL/6J mouse model assessed as reduction in colon swelling at 10 mg/kg, po administered for 7 days and measured on day 7; type: functional, organism-based
Mus musculus [18] = assay: Anti-inflammatory activity against DSS-induced ulcerative colitis C57BL/6J mouse model assessed as reduction in colon inflammation at 10 mg/kg, po administered for 7 days and measured on day 7; type: functional, organism-based
Mus musculus [19] = assay: Anti-inflammatory activity against DSS-induced ulcerative colitis C57BL/6J mouse model assessed as reduction in colon ulceration at 10 mg/kg, po administered for 7 days and measured on day 7; type: functional, organism-based
Mus musculus [20] = assay: Anti-inflammatory activity against DSS-induced ulcerative colitis C57BL/6J mouse model assessed as reduction in TNFalpha production at 10 mg/kg, po administered for 7 days and measured on day 7 by ELISA; type: functional, organism-based
Mus musculus [21] = assay: Anti-inflammatory activity against DSS-induced ulcerative colitis C57BL/6J mouse model assessed as reduction in IL-1beta production at 10 mg/kg, po administered for 7 days and measured on day 7 by ELISA; type: functional, organism-based
Mus musculus [22] = assay: Anti-inflammatory activity against DSS-induced ulcerative colitis C57BL/6J mouse model assessed as reduction in IL-6 production at 10 mg/kg, po administered for 7 days and measured on day 7 by ELISA; type: functional, organism-based
Mus musculus [23] = assay: Anti-inflammatory activity against DSS-induced ulcerative colitis C57BL/6J mouse model assessed as reduction in IL-23 production at 10 mg/kg, po administered for 7 days and measured on day 7 by ELISA; type: functional, organism-based
Mus musculus [24] = assay: Anti-inflammatory activity against DSS-induced ulcerative colitis C57BL/6J mouse model assessed as restoration of damaged colon mucosal layer at 10 mg/kg, po administered for 7 days and measured on day 7 by ELISA; type: functional, organism-based
Mus musculus [25] = assay: Anti-inflammatory activity against DSS-induced ulcerative colitis C57BL/6J mouse model assessed as reduction in impairment of epithelial barrier genes at 30 mg/kg, po administered for 7 days and measured on day 7 by proteomic analysis; type: functional, organism-based
Mus musculus [26] = assay: Anti-inflammatory activity against DSS-induced ulcerative colitis C57BL/6J mouse model assessed as reduction in impairment of wound healing genes at 30 mg/kg, po administered for 7 days and measured on day 7 by proteomic analysis; type: functional, organism-based
Mus musculus [27] = assay: Anti-inflammatory activity against DSS-induced ulcerative colitis C57BL/6J mouse model assessed as reduction in impairment of immune response genes at 30 mg/kg, po administered for 7 days and measured on day 7 by proteomic analysis; type: functional, organism-based
Mus musculus [28] = assay: Anti-inflammatory activity against DSS-induced ulcerative colitis C57BL/6J mouse model assessed as reduction in impairment of inflammatory response genes at 30 mg/kg, po administered for 7 days and measured on day 7 by proteomic analysis; type: functional, organism-based
Mus musculus [29] = assay: Anti-inflammatory activity against DSS-induced ulcerative colitis C57BL/6J mouse model assessed as reduction in impairment of host defense genes at 30 mg/kg, po administered for 7 days and measured on day 7 by proteomic analysis; type: functional, organism-based
Mus musculus [30] = assay: Anti-inflammatory activity against DSS-induced ulcerative colitis C57BL/6J mouse model assessed as reduction in impairment of T-cell receptor signalling genes at 30 mg/kg, po administered for 7 days and measured on day 7 by proteomic analysis; type: functional, organism-based
Mus musculus [31] = assay: Anti-inflammatory activity against DSS-induced ulcerative colitis C57BL/6J mouse model assessed as reduction in impairment of cell-cell adhesion genes at 30 mg/kg, po administered for 7 days and measured on day 7 by proteomic analysis; type: functional, organism-based
Mus musculus [32] = assay: Anti-inflammatory activity against DSS-induced ulcerative colitis C57BL/6J mouse model assessed as reduction in impairment of NF-kappaB signalling genes at 30 mg/kg, po administered for 7 days and measured on day 7 by proteomic analysis; type: functional, organism-based
Mus musculus [33] = assay: In vivo inhibition of NFkappaB in C57BL/6J mouse DSS-induced ulcerative colitis model assessed as increase in accumulation of IkBalpha in nucleus at 400 nM, po by confocal microscopy; type: functional, organism-based
Mus musculus [34] = assay: In vivo inhibition of NFkappaB in C57BL/6J mouse DSS-induced ulcerative colitis model assessed as increase in accumulation of NRF2 in nucleus at 400 nM, po by confocal microscopy; type: functional, organism-based
Mus musculus [35] = assay: In vivo inhibition of NFkappaB in C57BL/6J mouse DSS-induced ulcerative colitis model assessed as reduction in NFkappaB p65 expression at 10 and 30 mg/kg, po administered for 7 days and measured on day 7 by Western blot analysis; type: functional, organism-based
Mus musculus [36] = assay: Anti-inflammatory activity against DSS-induced ulcerative colitis C57BL/6J mouse model assessed as reduction in COX-2 production at 10 mg/kg, po administered for 7 days and measured on day 7 by ELISA; type: functional, organism-based
Mus musculus [37] = assay: In vivo inhibition of NFkappaB in C57BL/6J mouse DSS-induced ulcerative colitis model assessed as reduction in NQO1 expression at 10 and 30 mg/kg, po administered for 7 days and measured on day 7 by Western blot analysis; type: functional, organism-based
Mus musculus [38] = assay: In vivo inhibition of NFkappaB in C57BL/6J mouse DSS-induced ulcerative colitis model assessed as increase in Nrf2 expression at 10 and 30 mg/kg, po administered for 7 days and measured on day 7 by Western blot analysis; type: functional, organism-based
Mus musculus [39] = assay: In vivo inhibition of NFkappaB in C57BL/6J mouse DSS-induced ulcerative colitis model assessed as increase in HO1 expression at 10 and 30 mg/kg, po administered for 7 days and measured on day 7 by Western blot analysis; type: functional, organism-based
Mus musculus [40] = assay: In vivo inhibition of NFkappaB in C57BL/6J mouse DSS-induced ulcerative colitis model assessed as downregulation of MRP8 expression at 10 and 30 mg/kg, po administered for 7 days and measured on day 7 by Western blot analysis; type: functional, organism-based
Mus musculus [41] = assay: In vivo inhibition of NFkappaB in C57BL/6J mouse DSS-induced ulcerative colitis model assessed as downregulation of MRP14 expression at 10 and 30 mg/kg, po administered for 7 days and measured on day 7 by Western blot analysis; type: functional, organism-based
Mus musculus [42] = assay: In vivo inhibition of NFkappaB in C57BL/6J mouse DSS-induced ulcerative colitis model assessed as restoration of occludin expression at 10 and 30 mg/kg, po administered for 7 days and measured on day 7 by Western blot analysis; type: functional, organism-based
[43] = Stability of compound in artificial intestinal juice assessed as half life; type: ADME
[44] = Permeability in human Caco2 cells at 10 uM incubated for 4 hrs by LC-MS/MS analysis; type: ADME, cell-based; settings: caco-2, 4 h
[45] = Stability of compound in artificial gastric juice assessed as half life; type: ADME
[46] = Acute toxicity in C57BL/6 mouse assessed as lethargy at 300 to 600 mg/kg, po administered for 7 days and measured on day 7; type: organism-based; settings: in vivo, 168 h
[47] = Acute toxicity in C57BL/6 mouse assessed as weight loss at 300 to 600 mg/kg, po administered for 7 days and measured on day 7; type: organism-based; settings: in vivo, 168 h
[48] = Acute toxicity in C57BL/6 mouse assessed as sickness indication at 300 to 600 mg/kg, po administered for 7 days and measured on day 7; type: organism-based; settings: in vivo, 168 h
[49] = Toxicity in C57BL/6 mouse assessed as effect on colon at 300 to 600 mg/kg, po administered for 7 days and measured on day 14; type: organism-based; settings: in vivo, 168 h
[50] = Toxicity in C57BL/6 mouse assessed as effect on spleen at 300 to 600 mg/kg, po administered for 7 days and measured on day 14; type: organism-based; settings: in vivo, 168 h
[51] = target: Voltage-gated inwardly rectifying potassium channel KCNH2 (Homo sapiens, UniProt Q12809); assay: Inhibition of human ERG expressed in human HEK293 cells by whole cell patch clamp assay; type: cell-based
Voltage-gated inwardly rectifying potassium channel KCNH2, sequence (Q12809 whole entry): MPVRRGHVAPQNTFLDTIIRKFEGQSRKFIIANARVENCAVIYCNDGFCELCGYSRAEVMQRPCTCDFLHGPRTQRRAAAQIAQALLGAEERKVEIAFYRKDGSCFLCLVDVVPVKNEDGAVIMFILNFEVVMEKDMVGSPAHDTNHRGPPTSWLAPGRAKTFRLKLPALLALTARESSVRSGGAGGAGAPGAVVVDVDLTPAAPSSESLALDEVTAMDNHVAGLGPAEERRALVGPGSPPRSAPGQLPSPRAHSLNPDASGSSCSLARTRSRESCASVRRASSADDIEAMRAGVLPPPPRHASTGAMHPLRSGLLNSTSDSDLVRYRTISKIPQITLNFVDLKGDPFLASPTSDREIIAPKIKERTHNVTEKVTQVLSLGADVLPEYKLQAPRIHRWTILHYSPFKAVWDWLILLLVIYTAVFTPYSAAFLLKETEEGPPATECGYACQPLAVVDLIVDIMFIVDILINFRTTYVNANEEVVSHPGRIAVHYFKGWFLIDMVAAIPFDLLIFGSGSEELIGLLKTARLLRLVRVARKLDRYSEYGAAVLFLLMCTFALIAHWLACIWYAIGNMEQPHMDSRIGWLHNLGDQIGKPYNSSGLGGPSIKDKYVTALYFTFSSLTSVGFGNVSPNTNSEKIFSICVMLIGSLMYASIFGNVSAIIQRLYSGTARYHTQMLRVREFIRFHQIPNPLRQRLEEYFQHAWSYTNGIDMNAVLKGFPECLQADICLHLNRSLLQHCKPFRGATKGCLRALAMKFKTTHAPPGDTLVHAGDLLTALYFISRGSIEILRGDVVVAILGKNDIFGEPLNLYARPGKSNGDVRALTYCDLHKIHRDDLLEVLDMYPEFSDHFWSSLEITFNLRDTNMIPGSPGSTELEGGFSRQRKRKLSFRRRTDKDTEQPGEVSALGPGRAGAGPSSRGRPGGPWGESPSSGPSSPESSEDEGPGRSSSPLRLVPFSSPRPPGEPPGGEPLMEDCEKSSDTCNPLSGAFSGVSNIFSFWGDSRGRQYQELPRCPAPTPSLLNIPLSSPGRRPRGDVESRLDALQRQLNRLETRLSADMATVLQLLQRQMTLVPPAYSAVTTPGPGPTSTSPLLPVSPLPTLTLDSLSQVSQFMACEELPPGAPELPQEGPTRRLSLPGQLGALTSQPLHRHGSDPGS

O=C(/C=C\n1cnc(-c2cc(C(F)(F)F)cc(C(F)(F)F)c2)n1)NNc1cnccn1
inhibition (Exportin-1 [1]): inactive

[O-][S@@+](/C=C/CCN=C=S)c1cc(C(F)(F)F)cc(C(F)(F)F)c1
Kd (Exportin-1 [2]): 0.0269 µM
Activity [3]: Non-Toxic
inhibition (Exportin-1 [1]): 100%
IC50 (HCT-15): 14.7 µM
Activity (Homo sapiens): inactive
Activity [4]: inactive
Activity (Mus musculus [5]): Active
Activity (Mus musculus [6]): Active
Activity (Mus musculus [7]): Active
Activity (Mus musculus [8]): Active
Activity (Mus musculus [9]): Active
Activity (Mus musculus [10]): Active
Activity (Mus musculus [11]): Active
Activity (Mus musculus [12]): Dose-dependent effect
Activity (Mus musculus [13]): Active
Activity (Mus musculus [14]): Active
Activity (Mus musculus [15]): Active
Activity (Mus musculus [16]): Active
Activity (Mus musculus [17]): Active
Activity (Mus musculus [18]): Active
Activity (Mus musculus [19]): Active
Activity (Mus musculus [20]): Active
Activity (Mus musculus [21]): Active
Activity (Mus musculus [22]): Active
Activity (Mus musculus [23]): Active
Activity (Mus musculus [24]): Active
Activity (Mus musculus [25]): Active
Activity (Mus musculus [26]): Active
Activity (Mus musculus [27]): Active
Activity (Mus musculus [28]): Active
Activity (Mus musculus [29]): Active
Activity (Mus musculus [30]): Active
Activity (Mus musculus [31]): Active
Activity (Mus musculus [32]): Active
inhibition (Mus musculus [33]): Active
inhibition (Mus musculus [34]): Active
inhibition (Mus musculus [35]): Active
Activity (Mus musculus [36]): Active
inhibition (Mus musculus [37]): Active
inhibition (Mus musculus [38]): Active
inhibition (Mus musculus [39]): Active
inhibition (Mus musculus [40]): Active
inhibition (Mus musculus [41]): Active
inhibition (Mus musculus [42]): Active
half-life [43]: 8 h
permeability [44]: Permeable
half-life [45]: 24 h
Activity [46]: Non-Toxic
Activity [47]: Non-Toxic
Activity [48]: Non-Toxic
Activity [49]: Non-Toxic
Activity [50]: Non-Toxic
IC50 [51]: > 30 µM
